Biological target: T1, recombinant human liver GK (Homo sapiens, UniProt P35557)
T1 construct: made in house; host or cells: E. coli
T1 sequence (P35557 1-466 isoform P35557-2): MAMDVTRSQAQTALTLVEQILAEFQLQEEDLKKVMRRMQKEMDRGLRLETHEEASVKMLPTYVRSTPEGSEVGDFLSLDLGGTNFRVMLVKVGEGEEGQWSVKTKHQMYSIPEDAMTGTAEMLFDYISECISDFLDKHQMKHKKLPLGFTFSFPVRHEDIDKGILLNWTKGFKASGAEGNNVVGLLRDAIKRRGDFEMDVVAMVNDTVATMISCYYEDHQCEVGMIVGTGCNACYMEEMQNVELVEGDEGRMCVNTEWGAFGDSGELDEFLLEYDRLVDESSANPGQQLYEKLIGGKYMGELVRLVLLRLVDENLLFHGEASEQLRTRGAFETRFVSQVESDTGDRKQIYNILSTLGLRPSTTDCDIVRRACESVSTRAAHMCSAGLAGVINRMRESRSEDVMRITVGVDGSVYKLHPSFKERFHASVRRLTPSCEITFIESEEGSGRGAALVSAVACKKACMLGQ
Assay: Glucokinase-activating effect (Thio-NADH production via G6PDH-coupled assay)
Assay type: biochemical
Conditions: final glucose concentration 2.5 mM, 30° C.; for Emax: OD level of DMSO control taken as 100%
Protocol: The excellent glucokinase-activating effect of the compound represented by the Formula (I) can be determined by a method described in references (e.g., Diabetes, Vol. 45, pp. 1671-1677, 1996, etc.) or by a method based on the same.
The glucokinase activity is determined not by directly measuring glucose-6-phosphate, but by measuring the level of Thio-NADH produced when a reporter enzyme, glucose-6-phosphate dehydrogenase, produces phosphogluconolactone from glucose-6-phosphate.
A recombinant human liver GK used in this assay was expressed in E. coli as a FLAG fusion protein, and then purified by ANTIFLAG M2 AFFIMTY GEL (Sigma).
The assay was carried out using a flat-bottom 96-well plate at 30° C. First, 69 μl of assay buffer (25 mM Hepes Buffer:pH=7.2, 2 mM MgCl2, 1 mM ATP, 0.5 mM TNAD, 1 mM dithiothreitol) was dispensed, and 1 μl of DMSO solution of the compound or DMSO as a control was added thereto. Subsequently, 20 μl of enzyme mixture (FLAG-GK, 20 U/ml G6PDH) that had been cooled in ice was dispensed, and 10 μl of 25 mM glucose, a substrate, was added thereto to initiate reaction (final glucose concentration=2.5 mM).
After the start of the reaction, an increase in the absorbance at 405 nm was measured for 12 minutes at 30 second intervals, and the increment for the first 5 minutes was used for evaluation of the compound. FLAG-GK was added so that the increment of absorbance in 5 minutes in the presence of 1% DMSO was from 0.04 to 0.06.
Taking the OD level of the DMSO control as 100%, the OD level of the test compound at different concentrations was determined From the OD level at each concentration, Emax (%) and EC50 (μM) were calculated and used as an index of the GK-activating ability of the compound.

`CN(C)CCOc1ccc(Sc2ccc(Sc3nncn3C)nc2C(=O)Nc2ccn(C)n2)cc1` [Example 1, 3-({4-[2-(dimethylamino)ethoxy]phenyl}thio)-N-(1-methyl-1H-pyrazol-3-yl)-6-[(4-methyl-4H-1,2,4-triazol-3-yl)thio]pyridine-2-carboxamide] gave an Emax of 890% and an EC50 of 120 nM.
For `CCN(CC)CCOc1ccc(Sc2ccc(Sc3nncn3C)nc2C(=O)Nc2ccn(C)n2)cc1` [Example 2], the EC50 was 200 nM.
Work on `Cn1ccc(NC(=O)c2nc(Sc3nncn3C)ccc2Sc2ccc(OCCN3CCCC3)cc2)n1` [Example 3] yielded an EC50 of 80 nM.
`CN1CC(Oc2ccc(Sc3ccc(Sc4nncn4C)nc3C(=O)Nc3ccn(C)n3)cc2)C1` [Example 4, 3-({4-[(1-methylazetidin-3-yl)oxy]phenyl}thio)-N-(1-methyl-1H-pyrazol-3-yl)-6-[(4-methyl-4H-1,2,4-triazol-3-yl)thio]pyridine-2-carboxamide] was tested, and the EC50 was 70 nM.
`CCN1CC(Oc2ccc(Sc3ccc(Sc4nncn4C)nc3C(=O)Nc3ccn(C)n3)cc2)C1` [Example 5] was tested, and the EC50 was 120 nM.
For `CC(C)N1CC(Oc2ccc(Sc3ccc(Sc4nncn4C)nc3C(=O)Nc3ccn(C)n3)cc2)C1` [Example 6], the EC50 was 150 nM.
In the case of `CCN1CC(COc2ccc(Sc3ccc(Sc4nncn4C)nc3C(=O)Nc3ccn(C)n3)cc2)C1` [Example 7, 3-({4-[(1-ethylazetidin-3-yl)methoxy]phenyl}thio)-N-(1-methyl-1H-pyrazol-3-yl)-6-[(4-methyl-4H-1,2,4-triazol-3-yl)thio]pyridine-2-carboxamide], the Emax is reported as 930% and the EC50 is reported as 60 nM.
Work on `CC(C)N1CC(COc2ccc(Sc3ccc(Sc4nncn4C)nc3C(=O)Nc3ccn(C)n3)cc2)C1` [Example 8, 3-({4-[(1-isopropylazetidin-3-yl)methoxy]phenyl}thio)-N-(1-methyl-1H-pyrazol-3-yl)-6-[(4-methyl-4H-1,2,4-triazol-3-yl)thio]pyridine-2-carboxamide] yielded an Emax of 960% and an EC50 of 80 nM.
`CN(C)CCOc1ccc(Sc2ccc(Sc3nncn3C)nc2C(=O)Nc2ccn(C)n2)cn1` [Example 9] was tested, and the Emax was 880% and the EC50 was 180 nM.

Source: patent publication US20100261699A1, “N-PYRAZOLE-2-PYRIDINE CARBOXAMIDE DERIVATIVE” (Banyu Pharmaceutical Co., Ltd., priority 2007, published 2010)
